Source: patent US4259332A, “Novel taurine derivatives” (priority 1979, dated 1981)
Read-outs that look alike come from different tables or passages of the source.

Experiments:
[1] = mouse, literature, cited from earlier work
[2] = Edema as a result of nystatin in the rat's paw; type: in vivo; conditions: p.o.
Procedure: (B) Edema as a result of nystatin in the rat's paw. The long duration of this type of edema enabled the animals to be repeatedly treated in order to ascertain the presence if any of the protracted effect of the AST product also using parenteral administration. The comparison was carried out using a molar equivalent dose of acetylsalicylic acid administrated orally and with the carboxymethylcellulose placebo also only administered orally. The AST product was used in the acid form orally and in the salt form using intraperitoneal administration.
The dosages of the drugs, always proportional to one another, were varied from day to day, i.e.: the first day a dosage of 200 mg/Kg of ASA and 300 mg/Kg of AST; the second day a double dose of each; the third day a double dose of each divided into two equal components administered with a spacing of 9 hours (10 am and 7 pm respectively); the fourth day no treatment in order to check the length of the effect after the fourth administration.
The […] was injected into the paw on the night before the first treatment with the drugs and the volume of the paw was measured in hundredths of milliliter.

[3] = type: in vivo, rat; conditions: fasted rats, oral, 225 mg/Kg acetylsalicylic acid
Procedure: Rats which had not been fed for 24 hours were used. The AST product was administered orally as the acid or the sodium salt at a dosage of 335 mg/Kg suspended in 1% carboxymethylcellulose. […] Both the methods of treatment and the observation time were identical for the 3 groups of animals.

[4] = Antipyretic activity: pyrexia from subcutaneous yeast in the rat; type: in vivo; conditions: p.o., ASA 200, AST 300 mg/Kg
Procedure: Pyrexia from subcutaneous yeast in the rat. The AST product was administered orally in the acid from and the salt form with sodium, and by the intraperitoneal method in the salt form. It was compared with a molar equivalent dose of acetylsalicylic acid administered orally and with a carboxymethylcellulose placebo. The pyrexia was induced with a subcutaneous injection of yeast on the evening prior to the drug treatment, i.e. 16 hours before.

[5] = Analgesic activity: convulsions produced by phenylquinone; type: in vivo, mouse; conditions: oral, ASA 200, AST 300 mg/Kg
Procedure: (A) Test of convulsions produced by phenylquinone injected into mice by the intraperitoneal route. The AST product was administered orally both in the acid form (AST Ac). and as the sodium salt (AST Na). It was compared with a molar equivalent dosage of acetylsalicylic acid and with a carboxymethylcellulose placebo. The convulsions were induced at varying intervals from the oral treatment counting from the first 20 minutes after the injection of phenylquinone.

[6] = Edema resulting from yeast in the paw of the rat; type: in vivo; conditions: oral, ASA 200, AST 300 mg/Kg
Procedure: (A) Edema resulting from yeast in the paw of the rat. The AST product was administered orally both in the acid and sodium salt form. It was compared with a molar equivalent dose of acetylsalicylic acid and with carboxymethylcellulose placebo. The edema of the paw was induced with a local injection of the yeast simultaneously with the oral treatment with the drugs, and the volume of the paw was measured in hundredths of milliliter.

[7] = Analgesic activity: mechanical pressure test on inflamed rat's paw; type: in vivo; conditions: oral, ASA 200, AST 300 mg/Kg
Procedure: (B) Mechanical pressure test on inflamed rat's paw. The AST product was administered both in the acid and sodium salt form by the oral method. It was compared with a molar equivalent dosage of acetylsalicylic acid and with a carboxymethylcellulose placebo. The inflammation of the paw was induced by a local injection of yeast simultaneously with the oral treatment with the drugs and the tenderness was measured in grams of mechanical pressure required to cause a reaction in the animal.

[8] = Curative effect on intoxication by CCl4; type: in vivo, rat; conditions: 100 mg/kg endoperitoneal 1 h after CCl4; BSF tested after 4 hours
Procedure: Oral administration to rats of 10 ml/kg of a 10% solution of CCl4 in oil was followed with endoperitoneal administration of 100 mg/kg of Compound B after 1 hour. BSF (50 mg/kg i.v.) in the blood was tested after 4 hours. 5 Animals were used per group, and expressed as percentage change with respect to the control, the Compound B gave a reduction of -34.2.

[9] = BSF bile excretion after CCl4; type: in vivo, rat; conditions: 100 mg/kg endoperitoneal 4 days, CCl4 10% 10 ml/kg
Procedure: Endoperitoneal administration to rats of 100 mg/kg of Compound B for 4 days was followed on the fourth day, one hour after the last administration, with the rats receiving 10 ml/kg orally of a 10% solution of CCl4 in oil. BSF (5 mg/kg) in the bile was tested.

[10] = Intoxication by CCl4 and curative treatment; type: in vivo; conditions: 100 mg/kg endoperitoneal on days 1, 2 and 3
Procedure: On the first day there was oral administration of 10 ml/kg of a 10% solution of CCl4 in oil and simultaneous endoperitoneal administration of 100 mg/kg of Compound B. On the second and third days, there was endoperitoneal administration of 100 mg/kg of Compound B, then testing of BSF (50 mg/kg i.v.) in the blood.
5 Animals were used per group, and expressed as pecentage variation with respect to the control, there was a reduction by Compound B of 16.1.

[11] = Protection against hepatic intoxication by CCl4 and cold, Compound B (BSF in blood); type: in vivo; conditions: 500 mg/kg endoperitoneal
Procedure: Oral administration of 5 ml/kg of a 20% solution of CCl4 in oil, with simultaneous endoperitoneal administration of 500 mg/kg of Compound B, was followed by exposure for 5 hours at 4° C. BSF in the blood (30 mg/kg i.v.) was tested. A comparison product, homocysteinethiolactone (OCT) was employed.
10 Animals were treated per group, and the results expressed as percentage change with respect to the controls were as shown in Table 4.

[12] = Toxicology, oral treatment of mice for 180 days, Compound B; type: in vivo, mouse; conditions: 200 mg/kg orally
[13] = Antilipemic action, Morris, Handler or Nath diet, Compound B; type: in vivo, Wistar rat; conditions: for Bile BSF, percentage change vs control / Liver total lipids, percentage change vs control / Serum total cholesterol, percentage change vs control / Serum total lipids, percentage change vs control / Liver fresh organic weight, percentage change vs control / Serum beta-lipoproteins, percentage change vs control: 45 days, 200 mg/kg orally
Procedure: Wistar rats were treated for 45 days with a Morris diet, a Handler diet or a Nath diet. Simultaneously with the diet they received each day 200 mg/kg of Compound B or choline (except for the Nath diet) orally.

CC(=O)Oc1ccccc1C(=O)O [ASA, acetylsalicylic acid, reference compound]
LD50 ([1]; intraperitoneal): 420 mg/kg | LD50 ([1]; oral): 1,050 mg/kg | % Inhibition of the edema in respect of treatment with placebo ([2]; 1st day, 2h after 1st dose, ASA 200, AST Ac 300 mg/Kg): 8% | % Inhibition of the edema in respect of treatment with placebo ([2]; 1st day, 4h after 1st dose, ASA 200, AST Ac 300 mg/Kg): 10% | % Inhibition of the edema in respect of treatment with placebo ([2]; 1st day, 8h after 1st dose, ASA 200, AST Ac 300 mg/Kg): 7% | % Inhibition of the edema in respect of treatment with placebo ([2]; 2nd day, 2h after 2nd dose, ASA 400, AST Ac 600 mg/Kg): 10% | % Inhibition of the edema in respect of treatment with placebo ([2]; 2nd day, 4h after 2nd dose, ASA 400, AST Ac 600 mg/Kg): 11% | % Inhibition of the edema in respect of treatment with placebo ([2]; 2nd day, 8h after 2nd dose, ASA 400, AST Ac 600 mg/Kg): 15% | % Inhibition of the edema in respect of treatment with placebo ([2]; 3rd day, 2h after 3rd dose, ASA 200, AST Ac 300 mg/Kg): 8% | % Inhibition of the edema in respect of treatment with placebo ([2]; 3rd day, 4h after 3rd dose, ASA 200, AST Ac 300 mg/Kg): 11% | % Inhibition of the edema in respect of treatment with placebo ([2]; 3rd day, 8h after 3rd dose, ASA 200, AST Ac 300 mg/Kg): 14% | % Inhibition of the edema in respect of treatment with placebo ([2]; 4th day, 13h after 4th dose, ASA 200, AST Ac 300 mg/Kg): 9% | % Inhibition of the edema in respect of treatment with placebo ([2]; 4th day, 17h after 4th dose, ASA 200, AST Ac 300 mg/Kg): 12% | % Inhibition of the edema in respect of treatment with placebo ([2]; 4th day, 23h after 4th dose, ASA 200, AST Ac 300 mg/Kg): 8% | Haemorrhagic gastric ulcers [3]: 5 to 10 | % Inhibition of the pyrexia in respect of treatment with placebo ([4]; 1h): 78% | % Inhibition of the pyrexia in respect of treatment with placebo ([4]; 2h): 103% | % Inhibition of the pyrexia in respect of treatment with placebo ([4]; 4h): 114% | % Inhibition of the pyrexia in respect of treatment with placebo ([4]; 6h): 58% | % Inhibition of the pyrexia in respect of treatment with placebo ([4]; 8h): 45% | Inhibition % of convulsions in respect of treatment with placebo ([5]; 1h): 23% | Inhibition % of convulsions in respect of treatment with placebo ([5]; 2h): 37% | Inhibition % of convulsions in respect of treatment with placebo ([5]; 4h): 17% | Inhibition of the edema with respect to treatment with placebo ([6]; 1h): 41 | Inhibition of the edema with respect to treatment with placebo ([6]; 3h): 51 | Inhibition of the edema with respect to treatment with placebo ([6]; 5h): 55 | % Inhibition of the hyperalgesia in respect of treatment with placebo ([7]; 1h): 27% | % Inhibition of the hyperalgesia in respect of treatment with placebo ([7]; 5h): 0%

COc1cc(C(=O)OCCN(CCOC(=O)c2cc(OC)c(OC)c(OC)c2)CCS(=O)(=O)O)cc(OC)c1OC [Compound B, N,N-di-[2-(3,4,5-trimethoxybenzoyloxy)ethyl]taurine]
BSF in the blood, percentage change vs control (reduction) [8]: -34.2% | BSF bile excretion, percentage of excretion ([9]; 30 min.): 44.1% | BSF bile excretion, percentage of excretion ([9]; 60 min.): 50.9% | BSF in the blood, percentage variation vs control (reduction) [10]: 16.1% | Hepatic intoxication protection, percentage change of BSF in blood vs controls ([11]; test number 1): -27.5% | Hepatic intoxication protection, percentage change of BSF in blood vs controls ([11]; test number 2): -17.0% | Mortality [12]: No mortality occurred | Bile BSF, percentage change vs control ([13]; Handler diet, B and Choline): +23.4% | Liver total lipids, percentage change vs control ([13]; Handler diet, B and Choline): -29.1% | Serum total cholesterol, percentage change vs control ([13]; Handler diet, B and Choline): -7.3% | Serum total lipids, percentage change vs control ([13]; Handler diet, B and Choline): +9.1% | Liver fresh organic weight, percentage change vs control ([13]; Handler diet, second B column): -13.3% | Liver fresh organic weight, percentage change vs control ([13]; Handler diet): -24.9% | Liver total lipids, percentage change vs control ([13]; Handler diet): -37.7% | Serum total cholesterol, percentage change vs control ([13]; Handler diet): -6.3% | Serum total lipids, percentage change vs control ([13]; Handler diet): -15.9% | Bile BSF, percentage change vs control ([13]; Morris diet): +23.8% | Liver total lipids, percentage change vs control ([13]; Morris diet): -11.5% | Serum beta-lipoproteins, percentage change vs control ([13]; Morris diet): -23.7% | Serum total cholesterol, percentage change vs control ([13]; Morris diet): -23.2% | Serum total lipids, percentage change vs control ([13]; Morris diet): -22.4% | Liver total lipids, percentage change vs control ([13]; Nath diet): -23.4% | Serum beta-lipoproteins, percentage change vs control ([13]; Nath diet): -29.7% | Serum total cholesterol, percentage change vs control ([13]; Nath diet): -35.2% | Serum total lipids, percentage change vs control ([13]; Nath diet): -20.6% | Oral absorption (deduced from diet tests) ([13]; oral, powder with the diet): good oral absorption
